Key:
[1] = xn = mol fraction of the nth substance listed; settings: 101 kPa, Liquid; for viscosity: Capillary tube (Ostwald / Ubbelohde) method; for mass density: Vibrating tube method
[2] = refractive index (Na D-line) (dimensionless); xn = mol fraction of the nth substance listed; settings: 101 kPa, Liquid, Standard Abbe refractometry

CC(C)=O [acetone] + CO
Settings | mass density, [1] [kg/m3] | refractive index, [2] | viscosity, [1] [mPa·s]
298.15 K, x2 = 0 | 784.41 | 1.3558 | 0.3034
298.15 K, x2 = 0.1036 | 786.21 | 1.3539 | 0.3003
298.15 K, x2 = 0.2043 | 787.49 | 1.3521 | 0.3006
298.15 K, x2 = 0.302 | 788.57 | 1.3502 | 0.3059
298.15 K, x2 = 0.4013 | 789.53 | 1.3483 | 0.3143
298.15 K, x2 = 0.5004 | 790.3 | 1.3458 | 0.3299
298.15 K, x2 = 0.6006 | 790.81 | 1.3426 | 0.3533
298.15 K, x2 = 0.6969 | 790.98 | 1.3389 | 0.3852
298.15 K, x2 = 0.802 | 790.73 | 1.3352 | 0.4316
298.15 K, x2 = 0.8965 | 789.83 | 1.3315 | 0.4833
303.15 K, x2 = 0 | 778.66 | 1.3534 | 0.2966
303.15 K, x2 = 0.1036 | 780.47 | 1.3513 | 0.295
303.15 K, x2 = 0.2043 | 781.81 | 1.3497 | 0.2939
303.15 K, x2 = 0.302 | 782.95 | 1.3482 | 0.2987
303.15 K, x2 = 0.4013 | 784 | 1.3464 | 0.3073
303.15 K, x2 = 0.5004 | 784.89 | 1.3439 | 0.3188
303.15 K, x2 = 0.6006 | 785.55 | 1.3407 | 0.34
303.15 K, x2 = 0.6969 | 785.85 | 1.3369 | 0.3663
303.15 K, x2 = 0.802 | 785.67 | 1.3328 | 0.4051
303.15 K, x2 = 0.8965 | 784.85 | 1.3291 | 0.4472
308.15 K, x2 = 0 | 773.08 | 1.3509 | 0.2831
308.15 K, x2 = 0.1036 | 774.93 | 1.3493 | 0.2807
308.15 K, x2 = 0.2043 | 776.27 | 1.3481 | 0.2803
308.15 K, x2 = 0.302 | 777.4 | 1.3465 | 0.2844
308.15 K, x2 = 0.4013 | 778.45 | 1.3444 | 0.2945
308.15 K, x2 = 0.5004 | 779.36 | 1.3419 | 0.3103
308.15 K, x2 = 0.6006 | 780.05 | 1.3385 | 0.3255
308.15 K, x2 = 0.6969 | 780.38 | 1.3349 | 0.3531
308.15 K, x2 = 0.802 | 780.24 | 1.3309 | 0.3857
308.15 K, x2 = 0.8965 | 779.53 | 1.3269 | 0.4278
313.15 K, x2 = 0 | 766.95 | 1.349 | 0.2689
313.15 K, x2 = 0.1036 | 768.83 | 1.3469 | 0.2647
313.15 K, x2 = 0.2043 | 770.26 | 1.3457 | 0.2657
313.15 K, x2 = 0.302 | 771.49 | 1.3435 | 0.2704
313.15 K, x2 = 0.4013 | 772.65 | 1.3415 | 0.2769
313.15 K, x2 = 0.5004 | 773.67 | 1.3392 | 0.2881
313.15 K, x2 = 0.6006 | 774.49 | 1.3362 | 0.3057
313.15 K, x2 = 0.6969 | 775.01 | 1.3329 | 0.3316
313.15 K, x2 = 0.802 | 775.12 | 1.3289 | 0.3619
313.15 K, x2 = 0.8965 | 774.65 | 1.3253 | 0.3989
318.15 K, x2 = 0 | 761.26 | 1.3449 | 0.2511
318.15 K, x2 = 0.1036 | 763.15 | 1.3432 | 0.2478
318.15 K, x2 = 0.2043 | 764.64 | 1.3414 | 0.2494
318.15 K, x2 = 0.302 | 765.92 | 1.3397 | 0.2526
318.15 K, x2 = 0.4013 | 767.11 | 1.3381 | 0.2601
318.15 K, x2 = 0.5004 | 768.17 | 1.3361 | 0.2692
318.15 K, x2 = 0.6006 | 769.04 | 1.3334 | 0.2903
318.15 K, x2 = 0.6969 | 769.62 | 1.3303 | 0.3096
318.15 K, x2 = 0.802 | 769.88 | 1.3262 | 0.3377
318.15 K, x2 = 0.8965 | 769.53 | 1.3221 | 0.375
